One assay has as its target T1, USP21 (Homo sapiens, UniProt Q9UK80).
T1 construct: USP21 (residues 196-565); GST (N, cleaved yes); made in house; host or cells: E. coli BL21-Codon Plus (DE3)-RIL
T1 sequence (Q9UK80 196-565): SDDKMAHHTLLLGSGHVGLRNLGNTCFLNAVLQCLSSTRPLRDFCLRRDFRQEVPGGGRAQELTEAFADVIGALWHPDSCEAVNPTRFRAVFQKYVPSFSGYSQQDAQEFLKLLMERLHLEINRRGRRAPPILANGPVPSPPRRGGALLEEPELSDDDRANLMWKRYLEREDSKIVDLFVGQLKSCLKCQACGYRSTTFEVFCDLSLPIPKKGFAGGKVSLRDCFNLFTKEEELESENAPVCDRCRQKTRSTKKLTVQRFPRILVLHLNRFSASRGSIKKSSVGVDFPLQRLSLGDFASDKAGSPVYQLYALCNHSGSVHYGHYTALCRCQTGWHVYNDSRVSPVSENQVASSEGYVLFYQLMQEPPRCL
Briefly: In vitro USP21 deubiquitination assay, K11-linked di-ub cleavage. It is filed as biochemical. The following applies: 80 nM USP21, 10 min. The source says: OTUD7B (residues 56-446), OTUD7A (residues 1-462), USP21 (residues 196-565), and USP9X (residues 1551-1970) proteins were expressed in E. Coli BL21-Codon Plus (DE3)-RIL cells. Through an N-terminal GST tag, the DUBs were purified by affinity chromatography using glutathione sepharose 4B (GS4B) resin. Following the liberation of the DUB from the GST tag. the DUBs were subjected to size exclusion chromatography (SEC). To form the K11-linked di-ub, individual ubiquitins (K11R-substituted donor Ub and ΔGG acceptor ubiquitin) were purified and fluorescently-labeled on an N-terminal cysteine using either Cy3- (donor) or Cy5-maleimide (acceptor). The different ubiquitins were then added to a mixture containing UBA1, UBE2S, and MgATP to form di-ub. After an overnight incubation at room temperature, UBE2S was removed by cation-exchange chromatography and the di-ub was purified by SEC. These proteins were used to monitor DUB activity in the presence or absence of the various inhibitors. The inhibitors were incubated with DUBs in a reaction buffer (20 mM Hepes pH=8.0, 200 mM NaCl, 0.25 mg/mL BSA and 0.005% Tween-20) for 5 min at room temperature and then 0.5 uM fluorescently-labeled di-ub (K11-linked) was added to start the reaction. 5×SDS-PAGE loading buffer was used to quench the reaction at the indicated time point. […] Mono-ubiquitin was quantified to generate an IC50 value. […]

The subject of the next assay is THP1 cells. Put plainly: Leukemia cell proliferation, THP1. It is filed as cell-based. The following applies: 72 hrs. As for the experimental part:
(§1) 2,000 cells from indicated NSLC cell lines were seeded into each well of 96-well plates. Cell viability was measured 3 days post-treatment using MTT assays following manufacturer's instruction. For cell viability assays with inhibitor treatment, 2,000 cells from indicated NSLC and HEK293 cell lines were seeded in 96-well plate. Inhibitor was added the next day at indicated concentration and cell viability was measured after 3-day treatment. For cell proliferation assays in THP1, K562 and HL60 cell lines, 1×10^6 cells from each indicated cell line were seeded in 12.5 cm2 cell culture flask and cells were counted by hemocytometer under microscope at indicated time to monitor cell proliferation. To test inhibitor effects on THP1, K562 and HL60 cell growth, 2×10^5 cells were seeded in 12.5 cm2 cell culture flask. Inhibitor was added the next day at indicated concentrations and cell number was counted after 3 days treatment. Three independent experiments were performed to generate error bars.

The next assay deals with H520 cells. Briefly: Colony formation / growth of H520 cells. It counts as cell-based. Conditions: treated once for 10 days. As for the experimental part: 500 cells from OTUD7B depleted A549 cells were seeded into each well of 6-well plates and cultured in the 37° C. incubator with 5% CO2 for 10-15 days until formation of visible colonies. Triplicates were performed. To test the effect of a given inhibitor on colony formation ability, 800 cells from A549, H520 and H1299 cell lines were seeded into each well of 6-well plates, respectively. Each inhibitor was added at indicated concentration the next day. Colonies were counted after 10 days of treatment. The colony staining method was as described. […] Colony numbers were counted manually. […]
as §1, with “For cell viability assays with inhibitor treatment, 2,000 cells from indicated NSLC and HEK293 cell lines were seeded in 96-well plate.” left out, “To test inhibitor effects on THP1, K562 and HL60 cell growth, 2×10^5 cells were seeded in 12.5 cm2 cell culture flask.” left out, “Three independent experiments were performed to generate error bars.” left out

For a further assay, the system named is Akt-pS473. Briefly: Akt-pS473 immunoblot in HEK293 cells. It counts as cell-based. The procedure: Cells were harvested and lysed in EBC buffer (50 mM Tris pH 7.5, 120 mM NaCl, 0.5% NP-40) supplemented with protease inhibitor cocktail (EDTA-free, mini-tablet) (Bimake) and phosphatase inhibitor cocktail (Bimake) by rotating in the cold room for 10 min followed by high-speed centrifugation at 4° C. The protein concentrations in supernatants of whole cell lysates were measured by NanoDrop OneC using the Bio-Rad Bradford protein assay reagent. Equal amounts of whole cell lysates were resolved on SDS-PAGE and immunoblotted with indicated antibodies. For immunoprecipitation analysis, 1 mg of total cell lysate was incubated with the indicated beads for 3-4 hr at 4° C. The recovered immuno-complexes were washed thoroughly three times with NETN buffer (20 mM Tris, pH 8.0, 100 mM NaCl, 1 mM EDTA and 0.5% NP-40) before being resuspended in SDS sample buffer and resolved on SDS-PAGE and immunoblotted with indicated antibodies. […]
(In general: A western blot detects proteins with antibodies after separation by electrophoresis.)

The structures appear in SMILES notation.

In the case of `Cc1cc(NC(=O)c2cnn(C)c2C(=O)Nc2cc(C)nn2C2CCCC2)n(C2CCCC2)n1` [7Bi], the “inhibition of USP21” value on USP21 is recorded as “failed to inhibit”. The cell proliferation result with THP1 cells is on record as “reduced proliferation”. In the assay with H520 cells, the cell growth entry is on record as “reduced growth”. In addition, the “downregulation of Akt-pS473 signals by purified 7Bi” value in the assay on Akt-pS473 (HPLC purified 7Bi (~99% purity) compared with 90% purity) is reported as “retained its ability”. In addition, in the assay on Akt-pS473 (indicated doses, 16 hrs), the “suppression of Akt-pS473” value was “efficiently suppressed Akt-pS473”.

The values above are taken from patent US20260216138A1, “IDENTIFICATION OF OTUD7B INHIBITOR 7BI AND ITS APPLICATION IN REDUCING GROWTH OF NSCLC AND LEUKEMIA CELLS” (The University of North Carolina at Chapel Hill, priority 2023, published 2026).
